We go through two compounds from patent US8153625B2, “Nitrogen-containing heterocyclic compounds and medicinal use thereof” (Ono Pharmaceutical Co., Ltd., priority 2002, dated 2012).

One series concerns the target T1, CXCR4 (Homo sapiens, UniProt P61073).
T1 construct: a human T cell line known to express CXCR4 can be employed; endogenous in cells; host or cells: CEM (human T cell line), whole cells
The experiment in a line: Inhibition of binding of human 125I-SDF-1 to CEM cells. As to conditions: 125I-SDF-1 binding to human T cell line CEM. An excerpt:
Typically, as an assay for screening for a compound which inhibits the binding between SDF-1 and CXCR4, a system measuring the binding between an I-labeled SDF-1 and a human T cell line known to express CXCR4 can be employed. Since both of a macrophage (R5) HIV and RANTES, MIP- 1 a, MIP-1I3 bind to CCR5, a similar understanding is possible.
Inhibition of Human SDF-1 with CEM Cell
In a binding buffer solution (HEPES containing BSA), a human T cell line CEM cell was mixed with a test compound and ^125I-SDF-1 (NEN) and incubated for 60 minutes at […]. The reacted CEM cell was filtered rapidly through a GF/B membrane filter plate (Packard) to effect adsorption, followed by washing three times with PBS, drying and addition of Microscint+20 (Packard).

T1 sequence (P61073 whole entry): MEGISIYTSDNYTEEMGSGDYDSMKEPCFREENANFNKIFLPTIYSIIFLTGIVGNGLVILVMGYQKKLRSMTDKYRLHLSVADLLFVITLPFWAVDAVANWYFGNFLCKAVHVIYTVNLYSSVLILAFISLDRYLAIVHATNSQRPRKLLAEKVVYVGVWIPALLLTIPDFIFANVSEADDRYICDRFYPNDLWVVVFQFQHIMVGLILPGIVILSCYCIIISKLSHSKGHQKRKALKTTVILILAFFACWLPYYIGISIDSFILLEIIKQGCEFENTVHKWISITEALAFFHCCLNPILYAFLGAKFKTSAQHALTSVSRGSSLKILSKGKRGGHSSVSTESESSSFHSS

Broadly, the IC50 is the concentration that gives 50% inhibition. `c1ccc(CN2CCC(Nc3nccc(N4CCCCCC4)n3)C2)cc1` (stereo not drawn) [Example 4, 2-(1-benzylpyrrolidin-3-ylamino)-4-(perhydroazepin-1-yl)pyrimidine] yielded an IC50 at CXCR4 of 150 nM.

As usually defined, the melting point is the temperature of the solid-liquid transition. Consider `Cl.Cl.NCCNc1nccc(N2CCCCCC2)n1` [Example 1(41), 2-(2-aminoethylamino)-4-(perhydroazepin-1-yl)pyrimidine dihydrochloride], for which the melting point was 100 to 102 °C. This compound also displayed a half-maximal inhibitory concentration (IC50) at CXCR4 of 200 nM.
